{"source": "patent US12453708B2", "about": "“Aminonaphthoquinone compounds for treatment and/or prevention of fibrosis diseases” (CALGENT BIOTECHNOLOGY CO., LTD., priority 2015, dated 2025)", "tested_on": "TGF-β-induced CTGF expression in WI-38 cells", "assay": "TGF-β-induced CTGF expression in WI-38 cells (Western blot)", "type": "cell-based, human", "settings": "WI-38 lung fibroblasts, 0.3, 1, 3 or 10 μM for 30 min before and during 2 h TGF-β (10 ng/mL)", "description": "FIGS. 1 (A) and (B) show the effect of L056 on TGF-β-induced CTGF expression in WI-38 cells. WI-38 lung fibroblasts were incubated with different concentrations of L056 (0.3, 1, 3 or 10 μM) for 30 min before and during incubation for 2 h with TGF-β (10 ng/mL). […] (A), Western blot plot; (B), Quantitative assay of Western blot. WI-38 cells, a normal human embryonic lung fibroblast cell line, were obtained from American Type Culture Collection (Manassas, VA). Cells were grown in MEM nutrient mixture, containing 10% FCS, 2 mM L-glutamine, 0.1 mM NEAA, 1 mM sodium pyruvate, 50 U/ml penicillin G, and 100 µg/ml streptomycin, in a humidified 37° C. incubator with 5% CO2 Cells were used between passages 18 and 30 for all experiments. After reaching confluence, cells were seeded onto 6-cm dishes for immunoblotting. Western blot analyses were performed as described previously (Chen B C, Chang Y S, Kang J C, Hsu M J, Sheu J R, Chen T L, et al. Peptidoglycan induces nuclear factor-kappaB activation and cyclooxygenase-2 expression via Ras, Raf-1, and ERK in RAW 264.7 macrophages. J Biol Chem 2004; 279:20889-97). […] The immunoreactivity was detected using enhanced chemiluminescence (ECL) following the manufacturer's instructions. Quantitative data were obtained using a computing densitometer with scientific imaging systems (Kodak, Rochester, NY). […]"}
{"smiles": "O=C(Nc1ccncc1)c1ccc(CNC2=C(Cl)C(=O)c3ccccc3C2=O)cc1", "note": "[Example L056, 4-(((3-chloro-1,4-dioxo-1,4-dihydronaphthalen-2-yl)amino)methyl)-N-(pyridin-4-yl)benzamide]", "values": [{"measurement": "TGF-β-induced CTGF production", "value": "significantly inhibited"}]}
